One data set deals with Enterococcus (6 strains). As to the kind of experiment: In vitro antibacterial activity, MIC by agar double dilution method. The data set is classed as cell-based. The settings on record: clinical isolates, 35° C. 16 hrs. Put shortly:
(§1)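 Clinical isolates from the Nanjing region, spotted at about 10^6 CFU/mL onto MIT agar containing drug at 64 down to 0.031 μg/mL in 2-fold steps. Plates incubated 16 hrs at 35° C.; MIC is the lowest concentration with no growth.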

Data set [1] deals with Staphylococcus aureus resistant strains (6 strains). Described as above. The data set is classed as cell-based. The following applies: clinical isolates. Put shortly: as §1
The subject of data set [2] is Staphylococcus aureus sensitive strains (5 strains). The description is as above. The data set is classed as cell-based. The settings on record: clinical isolates. In outline:
as §1

For data set [3], the system named is Staphylococcus epidermidis resistant strains (5 strains). The data set is described as above. The data set is classed as cell-based. The following applies: clinical isolates. Put shortly:
as §1

In data set [4] the test system is Staphylococcus epidermidis sensitive strains (5 strains). Described as above. The data set is classed as cell-based. The settings on record: clinical isolates. In outline: as §1
In data set [5] the test system is Streptococcus pneumoniae resistant strains (4 strains). Described as above. The format is cell-based. The following applies: clinical isolates. In outline: as §1
For data set [6], the system named is LREFA, linezolid-resistant strain of Enterococcus faecium (3 strains). As to the kind of experiment: In vitro antibacterial activity on linezolid-resistant strains, MIC in MHB broth, 96-well plate. The format is cell-based. The settings on record: LREFA (3 strains). The method, then: (§2) The stock solution of the subject drugs in DMSO was 10 mg/mL. MHA (agar) and MHB (broth) were both prepared according to the manufacturer's requirements.
(§3) Double dilution of drugs: under aseptic operation, 12.8 μL of liquid drug was added into the first well of a 96-well plate, and then added 27.2 μL DMSO and mixed. The 2nd to 12nd wells were all added 20 μL DMSO. 20 μL was taken from the first well to the second well and mixed up. 20 μL was taken from the second well to the third well, which was repeated till the 11st well, from which was taken 20 μL and discarded. The 12nd well only had 20 μL of DMSO as the growth control. Then 180 μL of sterile water was added to each well and mixed up. The drug used as control was prepared by the same method.
(§4) The solutions with different concentrations of antibacterial drugs after the double dilution and DMSO were added into a sterile 96-well plate separately, 10 μL per well, ready for use.
(§5) Single colonies were picked from the MHA plates into 5 ml of sterile saline and mixed up.
(§6) Light transmittance was adjusted to 80% with a spectrophotometer. After being diluted by 1:200 with MHB, 90 μL of such bacteria liquid was added into each of the wells which already had 10 μL of the drug liquid, mixed up, and incubated in a regular biochemical incubator at 35° C. for 20 hrs before the results were read out. At this time, the drug concentration in the 1st to 12nd wells was 32, 16, 8, 4, 2, 1, 0.5, 0.25, 0.125, 0.0625, 0.03125, 0 μg/mL, respectively.
(§7) Two parallel groups were set up for the same diluted concentration of a drug.
(§8) 4) Results Reading and Judgment: Refer to the Standard Recommended by the CLSI, 2010 Edition.
(§9) The positive control group was LZ (linezolid, brand name Zyvox, approved by the FDA in 2000 to be firstly sold in the United States, which is the first and also the only one of oxazolidinone antibacterial drugs allowed to enter clinical application).

For data set [7], the system named is LREFL, linezolid-resistant strain of Enterococcus faecalis (3 strains). The data set is described as above. The format is cell-based. The following applies: LREFL (3 strains). The method, then:
as §2, §3, §4, §5, §6, §7, §8, §9

Data set [8] concerns LRSA, linezolid-resistant strain of Staphylococcus aureus (3 strains). The description is as above. The format is cell-based. The settings on record: LRSA (3 strains). The method, then: as §2, §3, §4, §5, §6, §7, §8, §9
The test system of data set [9] is LRSE, linezolid-resistant strain of Staphylococcus epidermidis (1 strain). Described as above. The data set is classed as cell-based. The following applies: LRSE (1 strain). The protocol:
as §2, §3, §4, §5, §6, §7, §8, §9

Data set [10] has as its system S.a. ATCC 29213 (standard strain of Staphylococcus aureus). The description is as above. The data set is classed as cell-based. The settings on record: ATCC29213, 35° C. 20 hrs. The protocol:
as §2, §3, §4, §5, §6, §7, §8, §9

The record followed here is patent publication US9416144B2, “Benzoxazine oxazolidinone compound, preparation method and application thereof” (priority 2012, dated 2016).

≈ marks a conversion by molar mass, not a printed value.

Compound `C[C@@H](O)C(=O)c1ccc(-c2ccc3c(c2)OC[C@H]2[C@H](CO)OC(=O)N32)cn1` [Compound 1, (3R,3aS)-3-(hydroxylmethyl)-7-(6-((R)-2-hydroxylpropionyl)pyridin-3-yl)-3a,4-dihydrobenzo[b]oxazolo[3,4-d][1,4]oxazin-1(3H)-one] gave a melting point of 164 to 166 °C. For the same compound, in the data set on Enterococcus (6 strains), the MIC came to 1 µg/mL (≈ 2.7 µM). The MIC in data set [1] fell in the range of 0.125 to 0.5 µg/mL (≈ 0.338 to 1.35 µM). The compound also returned an MIC in data set [2] of 0.25 µg/mL (≈ 0.675 µM). This compound yielded an MIC in data set [3] of 0.125 to 0.5 µg/mL (≈ 0.338 to 1.35 µM). Moreover, the MIC in data set [4] lay in the range of 0.125 to 0.5 µg/mL (≈ 0.338 to 1.35 µM). For the same compound, the MIC in data set [5] was in the range of 0.25 to 0.5 µg/mL (≈ 0.675 to 1.35 µM). For the same compound, the MIC in data set [6] lay within 4 to 8 µg/mL (≈ 10.8 to 21.6 µM). Besides, the MIC in [7] worked out at 8 µg/mL (≈ 21.6 µM). In data set [8], this compound returned an MIC of 8 µg/mL (≈ 21.6 µM). Further, in data set [9], the MIC worked out at 4 µg/mL (≈ 10.8 µM). Also, in [10], the MIC was 0.5 µg/mL (≈ 1.35 µM).
Regarding `O=C1O[C@@H](CO)[C@@H]2COc3cc(-c4ccc(Cn5cncn5)nc4)ccc3N12` [Compound 2, (3R,3aS)-7-(6-((1H-1,2,4-triazol-1-yl)methyl)pyridin-3-yl)-3-(hydroxylmethyl)-3a,4-dihydrobenzo[b]oxazolo[3,4-d][1,4]oxazin-1(3H)-one], the MIC with Enterococcus (6 strains) is 1 to 2 µg/mL (≈ 2.64 to 5.27 µM); in data set [1], 0.5 to 1 µg/mL (≈ 1.32 to 2.64 µM); in data set [2], 0.5 to 1 µg/mL (≈ 1.32 to 2.64 µM); in data set [3] it was 0.5 to 1 µg/mL (≈ 1.32 to 2.64 µM); in [4], 0.5 to 1 µg/mL (≈ 1.32 to 2.64 µM); in [5] it was 0.5 to 2 µg/mL (≈ 1.32 to 5.27 µM). Further, the MIC is 4 to 8 µg/mL (≈ 10.5 to 21.1 µM) in [6]; 4 to 8 µg/mL (≈ 10.5 to 21.1 µM) in data set [7]; 8 µg/mL (≈ 21.1 µM) in data set [8]; 4 µg/mL (≈ 10.5 µM) in data set [9]; 0.5 µg/mL (≈ 1.32 µM) in data set [10].
With `N#Cc1ccc(-c2ccc3c(c2)OC[C@H]2[C@H](CO)OC(=O)N32)cn1` [Compound 3, 5-((3R,3aS)-3-(hydroxylmethyl)-1-oxo-1,3,3a,4-tetrahydrobenzo[b]oxazolo[3,4-d][1,4]oxazin-7-yl)picolinonitrile], the MIC was 1 µg/mL (≈ 3.09 µM) against Enterococcus (6 strains); 0.125 to 0.25 µg/mL (≈ 0.387 to 0.773 µM) in data set [1]; 0.25 to 0.5 µg/mL (≈ 0.773 to 1.55 µM) in data set [2]; 0.125 to 0.25 µg/mL (≈ 0.387 to 0.773 µM) in data set [3]; 0.25 µg/mL (≈ 0.773 µM) in data set [4]; 0.25 to 0.5 µg/mL (≈ 0.773 to 1.55 µM) in data set [5]. Also, the MIC was 2 to 4 µg/mL (≈ 6.19 to 12.4 µM) in data set [6]; 4 µg/mL (≈ 12.4 µM) in data set [7]; 4 to 8 µg/mL (≈ 12.4 to 24.7 µM) in data set [8]; 4 µg/mL (≈ 12.4 µM) in data set [9]; 0.25 µg/mL (≈ 0.773 µM) in [10].
Regarding `O=C1OCCN1c1ccc(-c2ccc3c(c2)OC[C@H]2[C@H](CO)OC(=O)N32)cn1` [Compound 5, (3R,3aS)-3-(hydroxylmethyl)-7-(6-(2-oxazolidino-3-yl)pyridin-3-yl)-3a,4-dihydrobenzo[b]oxazolo[3,4-d][1,4]oxazin-1(3H)-one], the MIC in the data set on Enterococcus (6 strains) is 1 µg/mL (≈ 2.61 µM); in data set [1] it was 0.5 to 1 µg/mL (≈ 1.3 to 2.61 µM); in data set [2], 0.5 to 1 µg/mL (≈ 1.3 to 2.61 µM); in data set [3] it was 0.5 to 1 µg/mL (≈ 1.3 to 2.61 µM); in data set [4] it was 0.5 to 1 µg/mL (≈ 1.3 to 2.61 µM); in data set [5] it was 0.5 to 1 µg/mL (≈ 1.3 to 2.61 µM). The MIC in [6] was 4 to 8 µg/mL (≈ 10.4 to 20.9 µM); in [7] it was 4 to 8 µg/mL (≈ 10.4 to 20.9 µM); in data set [8] it was 4 µg/mL (≈ 10.4 µM); in data set [9] it was 2 µg/mL (≈ 5.22 µM); in [10], 0.5 µg/mL (≈ 1.3 µM).
Consider `C[C@@H](O)C(O)c1ccc(-c2ccc3c(c2)OC[C@H]2[C@H](CO)OC(=O)N32)cn1` (stereo partly drawn) [Compound 18, (3R,3aS)-7-(6-((2R)-1,2-dihydroxylpropyl)pyridin-3-yl)-3-(hydroxylmethyl)-3a,4-dihydrobenzo[b]oxazolo[3,4-d][1,4]oxazin-1(3H)-one], for which the MIC in the data set on Enterococcus (6 strains) was 4 to 8 µg/mL (≈ 10.7 to 21.5 µM); in data set [1], 2 µg/mL (≈ 5.37 µM); in data set [2], 2 to 4 µg/mL (≈ 5.37 to 10.7 µM); in [3], 1 to 2 µg/mL (≈ 2.69 to 5.37 µM); in data set [4], 1 to 2 µg/mL (≈ 2.69 to 5.37 µM); in data set [5], 2 to 4 µg/mL (≈ 5.37 to 10.7 µM). In addition, the MIC in data set [6] is 2 to 4 µg/mL (≈ 5.37 to 10.7 µM); in data set [7], 2 to 4 µg/mL (≈ 5.37 to 10.7 µM); in [8], 4 µg/mL (≈ 10.7 µM); in [9], 4 µg/mL (≈ 10.7 µM); in data set [10], 0.5 µg/mL (≈ 1.34 µM).
As for `CN1CCC[C@H]2CN(c3ccc(-c4ccc5c(c4)OC[C@H]4[C@H](CO)OC(=O)N54)cn3)C[C@H]21` [Compound 23, (3R,3aS)-3-(hydroxylmethyl)-7-(6-((4aS,7aS)-1-methylhexaydro-1H-pyrrolo[3,4-b]pyridin-6(2H)-yl)pyridin-3-yl)-3a,4-dihydrobenzo[b]oxazolo[3,4-d][1,4]oxazin-1(3H)-one], the melting point lay within 169 to 171 °C. In the data set on Enterococcus (6 strains), this compound displayed a minimum inhibitory concentration (MIC) of 16 µg/mL (≈ 36.7 µM). For the same compound, in [1], the MIC was 8 µg/mL (≈ 18.3 µM). Further, in [2], the MIC amounted to 8 µg/mL (≈ 18.3 µM). In addition, in data set [3], the MIC was 8 to 16 µg/mL (≈ 18.3 to 36.7 µM). Also, the MIC in [4] is 4 to 8 µg/mL (≈ 9.16 to 18.3 µM). In data set [5], this compound registered an MIC of 16 µg/mL (≈ 36.7 µM).
For the compound `O=C1O[C@@H](CO)[C@@H]2COc3cc(-c4ccc(N5C[C@@H]6CCCN[C@@H]6C5)nc4)ccc3N12` [Compound 32, (3R,3aS)-7-(6-((4aS,7aS)-hexahydro-1H-pyrrolo[3,4-b]pyridin-6(2H)-yl)pyridin-3-yl)-3-(hydroxylmethyl)-3a,4-dihydrobenzo[b]oxazolo[3,4-d][1,4]oxazin-1(3H)-one], the melting point was in the range of 210 to 212 °C. In the data set with Enterococcus (6 strains), this compound displayed an MIC of 16 µg/mL (≈ 37.9 µM). In addition, in data set [1], the MIC is 8 µg/mL (≈ 18.9 µM). Further, in [2], the MIC is 4 to 8 µg/mL (≈ 9.47 to 18.9 µM). For the same compound, in [3], the MIC fell in the range of 4 to 8 µg/mL (≈ 9.47 to 18.9 µM). Also, the MIC in data set [4] fell in the range of 4 to 8 µg/mL (≈ 9.47 to 18.9 µM). In addition, the MIC in [5] lay in the range of 8 to 16 µg/mL (≈ 18.9 to 37.9 µM).
`N#Cc1ccc(-c2ccc3c(c2)OC[C@H]2[C@H](COC(=O)CCC(=O)O)OC(=O)N32)cn1` [Compound 34, 4-(((3R,3aS)-7-(6-cyanopyridin-3-yl)-1-oxo-1,3,3a,4-tetrahydrobenzo[b]oxazolo[3,4-d][1,4]oxazin-3-yl)methoxyl)-4-oxobutyric acid] gave a melting point of 313 to 315 °C. The same compound registered an MIC in data set [6] of 4 µg/mL (≈ 9.45 µM). The compound further showed an MIC in data set [7] of 4 µg/mL (≈ 9.45 µM). For the same compound, the MIC in data set [8] was determined as 8 µg/mL (≈ 18.9 µM). In data set [9], this compound gave an MIC of 4 µg/mL (≈ 9.45 µM). Further, in data set [10], the minimum inhibitory concentration (MIC) stood at 0.5 µg/mL (≈ 1.18 µM).
